Measured values as given in patent publication US8227501B2, “1,6-dihydro-2H-3-oxa-6-aza-as-indacene compounds” (Ferrer Internacional, S.A., priority 2008, dated 2012).

Columns and labels:
[1] = therapeutic use in humans; cited from earlier work
[2] = molecular target: T1, recombinant human-MT1 receptor (Homo sapiens, UniProt P48039); test: In vitro MT1 screening, agonist activity (AequoScreen aequorin luminescence); type: cell-based; details: percentage of activity relative to the reference agonist at the EC100 concentration
T1 construct: expressed in transfected cells; host or cells: unnamed cell line stably overexpressing human MT1, co-expressing mitochondrial apoaequorin and Gα16
Description: To proceed with compound screening over MT1 receptor, a cell line characterised by a stable overexpression of recombinant human-MT1 receptor was used. This line co-expresses mitochondrial apoaequorin and subunit Gα16.
Subunit Gα16 belongs to […], in which intracelular signal transduction is produced via phospholipase (PLC). Activation of PLC produces an increment of inositol-triphosphate levels and intracellular calcium levels. This increment in calcium levels is, therefore, independent and full compatible with the signal transduction of MT1 receptor.
After binding to calcium, aequorin carries out the oxidation of colenterazine to colenteramide, a luminescent reaction.
Assay protocol for agonist screening consists in an overnight incubation of cells and colenterazine, being performed by an AequoScreen™ system instrument, PerkinElmer, USA. After that this mixture was injected over a plate that contains the solution of the compounds to screen and luminescence was immediately read. Only in case of antagonism screening, after 15-30 min of the first injection the reference agonist was added in the same well, and then luminescence was measured.
Agonist activity was calculated as percentage of activity relative to the reference agonist at the EC100 concentration. Activity of antagonists was expressed as the inhibition percentage over the activity of reference agonist at its EC80, concentration.

T1 sequence (P48039 whole entry): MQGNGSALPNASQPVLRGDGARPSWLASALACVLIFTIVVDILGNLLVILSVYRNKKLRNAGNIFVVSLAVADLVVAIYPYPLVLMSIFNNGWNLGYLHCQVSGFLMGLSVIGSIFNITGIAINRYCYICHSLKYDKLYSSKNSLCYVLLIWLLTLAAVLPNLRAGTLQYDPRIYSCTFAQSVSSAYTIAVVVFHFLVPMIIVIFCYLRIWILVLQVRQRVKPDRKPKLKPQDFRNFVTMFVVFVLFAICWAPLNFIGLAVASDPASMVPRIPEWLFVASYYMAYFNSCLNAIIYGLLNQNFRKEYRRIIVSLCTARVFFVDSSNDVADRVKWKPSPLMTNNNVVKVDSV

Row | Agonism percentages of MT1, 1 nM ([2]; 1 nM compound) [%] | Agonism percentages of MT1, 100 nM ([2]; 100 nM compound) [%] | activation at 0.001 µM ([2]; 1 nM compound, read-out: Agonism percentages of MT1, 1 nM) [%] | activation at 0.1 µM ([2]; 100 nM compound, read-out: Agonism percentages of MT1, 100 nM) [%] | Structure (SMILES) | half-life [1]
1 | 48.0 | 102.6 |  |  | COc1ccc2[nH]cc(CCNC(C)=O)c2c1 [Melatonin, reference compound] | minutes
2 |  |  | 24.6 | 91.4 | CCCCC(=O)NCC(C)c1c[nH]c2cc(F)c3c(c12)CC(C)O3 (centres unmarked) [Compound 39, Pentanoic acid [2-(4-fluoro-2-methyl-1,6-dihydro-2H-3-oxa-6-aza-as-indacen-8-yl)-propyl]-amide] | 
